Among the test systems are SK-MEL-28 melanoma; LOX IMVI melanoma; U251 CNS; SNB-19 CNS; MALME-3M melanoma; 786-0 renal; NCI-H460 lung; HCT-15 colon; HT29 colon.
Common to all, as to assay: DTP human tumour cell line panel, 48 h

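Tested at 5 concentrations; 48 h exposure; 96-well plates; endpoints linearly interpolated, else capped at highest concentration. TGI marks complete inhibition of growth.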

For `CN1CCCc2nc3ccccc3n2C1`, the TGI in the assay on SK-MEL-28 melanoma, with LOX IMVI melanoma, with U251 CNS, in the assay on SNB-19 CNS, in the assay with MALME-3M melanoma and with 786-0 renal was greater than 100 µM throughout. Also, the TGI in the assay with NCI-H460 lung, in the assay on HCT-15 colon and in the assay on HT29 colon was greater than 100 µM throughout.
Turning to `CC(C)(C)C1=NO[C@H]2[C@@H](NC(=O)c3ccccc3)CC[C@@H]12`, the total growth inhibition concentration (TGI) in the assay on SK-MEL-28 melanoma, in the assay with LOX IMVI melanoma, with U251 CNS, in the assay with SNB-19 CNS, in the assay with MALME-3M melanoma and with 786-0 renal was greater than 100 µM in each case. The TGI with NCI-H460 lung, with HCT-15 colon and in the assay with HT29 colon was greater than 100 µM each time.
Take `O=[N+]([O-])c1cccnc1S(=O)(=O)c1ccccc1`: the total growth inhibition concentration (TGI) (usually the concentration at which net growth stops) with SK-MEL-28 melanoma amounted to 34.6 µM; in the assay on LOX IMVI melanoma, 15.7 µM; in the assay with U251 CNS it was 22.8 µM; with SNB-19 CNS, 34.1 µM; in the assay on MALME-3M melanoma, 23.8 µM; with 786-0 renal, 7.09 µM. Moreover, the TGI with NCI-H460 lung stood at 27.8 µM; in the assay on HCT-15 colon, 21.7 µM; in the assay on HT29 colon, 14.3 µM.
As to `N#Cc1ccccc1Sc1ccccc1N`, the TGI in the assay on SK-MEL-28 melanoma, with LOX IMVI melanoma, with U251 CNS, with SNB-19 CNS, with MALME-3M melanoma and with 786-0 renal was greater than 100 µM throughout. Also, the total growth inhibition concentration (TGI) in the assay with NCI-H460 lung and in the assay with HT29 colon was greater than 100 µM in each case.
Turning to `Cc1ccc(S(=O)(=O)Nc2ccccc2C(C)(C)C)cc1`, the TGI in the assay on SK-MEL-28 melanoma amounted to 43.2 µM; in the assay with U251 CNS, 43.3 µM; in the assay on MALME-3M melanoma it was 89.1 µM; with 786-0 renal, 62.5 µM; in the assay with NCI-H460 lung, 42.2 µM; in the assay on HCT-15 colon, 54.6 µM. In the assay with HT29 colon, this compound yielded a total growth inhibition concentration (TGI) of 31.9 µM.
For `Cc1ccc(-n2c3nc(=O)n(C)c(=O)c-3nc3ccccc32)c(C)c1`, the concentration for total growth inhibition (TGI) was 33.9 µM in the assay on LOX IMVI melanoma; 32.1 µM with U251 CNS; 16.1 µM with SNB-19 CNS; 12.9 µM with MALME-3M melanoma; 42.1 µM with 786-0 renal; 15.3 µM in the assay on NCI-H460 lung. Further, the TGI is 22.5 µM in the assay on HCT-15 colon and 11.7 µM in the assay on HT29 colon.
As to `C=C1C(=O)O[C@@H]2C[C@@]3(C)[C@H](O)CCC(=C)[C@@H]3C[C@H]12`, the total growth inhibition concentration (TGI) in the assay with SK-MEL-28 melanoma was 20.2 µM; in the assay on LOX IMVI melanoma, 20.7 µM; in the assay on U251 CNS it was 26.2 µM; in the assay with SNB-19 CNS, 46.9 µM; in the assay on MALME-3M melanoma, 12.6 µM; with 786-0 renal, 21.6 µM. Besides, the results for the TGI in the assay on NCI-H460 lung, in the assay with HCT-15 colon and in the assay on HT29 colon were 19.7 µM, 35.1 µM and 12.1 µM, respectively.
Turning to `Cc1nc2sccn2c1C(=O)NNC(N)=S`, the TGI in the assay with SK-MEL-28 melanoma, with LOX IMVI melanoma, with U251 CNS, in the assay with SNB-19 CNS, with MALME-3M melanoma and in the assay on 786-0 renal was greater than 100 µM in each case. Also, the total growth inhibition concentration (TGI) in the assay on NCI-H460 lung, in the assay with HCT-15 colon and in the assay with HT29 colon was greater than 100 µM in each case.
`O=C1C=CC2(O)OCC3C=C4O[C@@H]5OC6(CCCCC6)O[C@@H]5C4[C@@H]2[C@@H]13` (stereo partly drawn): the concentration for total growth inhibition (TGI) is 44.7 µM in the assay with SK-MEL-28 melanoma; greater than 100 µM in the assay with LOX IMVI melanoma; greater than 100 µM in the assay on U251 CNS; greater than 100 µM with SNB-19 CNS; 62.1 µM with MALME-3M melanoma; 41.2 µM in the assay with 786-0 renal. Besides, the TGI is greater than 100 µM in the assay with NCI-H460 lung, 58.7 µM in the assay on HCT-15 colon and 50.9 µM with HT29 colon.
On to `O=C(Nc1nc(=S)[nH][nH]1)C(=O)C(c1cnc2ccc([N+](=O)[O-])cc2n1)[N+](=O)[O-]` (stereo not drawn), for which the TGI in the assay on SK-MEL-28 melanoma, with LOX IMVI melanoma, in the assay with U251 CNS, in the assay with SNB-19 CNS, with MALME-3M melanoma and in the assay with 786-0 renal was greater than 100 µM throughout. In addition, the concentration for total growth inhibition (TGI) in the assay with NCI-H460 lung, with HCT-15 colon and in the assay on HT29 colon was greater than 100 µM each time.
With `C#Cc1cccc(NC(=O)/C=C\C(=O)O)c1`, the TGI in the assay with SK-MEL-28 melanoma, in the assay with U251 CNS, in the assay on SNB-19 CNS, with MALME-3M melanoma, in the assay with 786-0 renal and in the assay with NCI-H460 lung was greater than 100 µM in each case. The total growth inhibition concentration (TGI) with HT29 colon was greater than 100 µM.
Take `CC(C)(C)OC(=O)N[C@H]1CC(=O)c2ccccc2N(CC(=O)O)C1=O`: the TGI in the assay with SK-MEL-28 melanoma is greater than 100 µM; in the assay on LOX IMVI melanoma, greater than 100 µM; with SNB-19 CNS it was greater than 100 µM; in the assay with MALME-3M melanoma, 37.1 µM; in the assay on 786-0 renal, greater than 100 µM; in the assay with NCI-H460 lung, greater than 100 µM. Also, the TGI in the assay on HCT-15 colon and with HT29 colon was greater than 100 µM throughout.
For the compound `O=C([O-])c1ccc([I+]c2ccccc2)cc1`, the TGI with LOX IMVI melanoma, with U251 CNS, with SNB-19 CNS, in the assay with MALME-3M melanoma, in the assay with 786-0 renal and with NCI-H460 lung was greater than 100 µM in each case. Moreover, the total growth inhibition concentration (TGI) in the assay on HCT-15 colon and with HT29 colon was greater than 100 µM each time.
With `O=c1c2ccccc2nc(-c2cccc(Cl)c2)n1NC1OC(CO)C(O)C(O)C1O` (stereo not drawn), the TGI with SK-MEL-28 melanoma, in the assay on U251 CNS, with SNB-19 CNS, with MALME-3M melanoma, with 786-0 renal and in the assay on NCI-H460 lung was greater than 100 µM throughout. The TGI in the assay with HCT-15 colon and in the assay on HT29 colon was greater than 100 µM throughout.
Regarding `CCOC(=O)C1C(c2ccc(Br)cc2)N(Cc2ccccc2)C(c2ccc(Br)cc2)C(C(=O)OC)S1(=O)=O` (stereo not drawn), the TGI with SK-MEL-28 melanoma, in the assay with LOX IMVI melanoma, in the assay on SNB-19 CNS, with MALME-3M melanoma, in the assay with 786-0 renal and in the assay on NCI-H460 lung was greater than 100 µM each time. Moreover, the total growth inhibition concentration (TGI) with HCT-15 colon and in the assay on HT29 colon was greater than 100 µM each time.
For `CCc1c(OC(C)=O)c2c(NC3OC(COC(C)=O)C(OC(C)=O)C(OC(C)=O)C3OC(C)=O)nc(SC)nc2oc1=O` (stereo not drawn), the TGI in the assay on LOX IMVI melanoma, in the assay on U251 CNS, in the assay on SNB-19 CNS, in the assay with MALME-3M melanoma, in the assay on 786-0 renal and with NCI-H460 lung was greater than 100 µM throughout. The TGI with HCT-15 colon and with HT29 colon was greater than 100 µM throughout.
